The source of these data is ChEMBL document CHEMBL5465560, “Selectivity Literature for EUbOPEN Chemogenomic Library” (2024).

For test [1], the system named is Angiopoietin-1 receptor (Homo sapiens), Q02763 [Y1108F]. Nature of the test: (§1) Selectivity interaction (LanthaScreen Eu Kinase Binding Assay) EUB0001632a TEK. To be noted: at 10 µM. A general note: TR-FRET usually uses a lanthanide donor and a delayed reading to cut background.
The test system of test [2] is Angiopoietin-1 receptor (Homo sapiens), Q02763 [R849W]. The test is described as §1. The note with it: at 10 µM.
Chain of Angiopoietin-1 receptor (Homo sapiens), Q02763 [R849W] (Q02763 whole entry R849W): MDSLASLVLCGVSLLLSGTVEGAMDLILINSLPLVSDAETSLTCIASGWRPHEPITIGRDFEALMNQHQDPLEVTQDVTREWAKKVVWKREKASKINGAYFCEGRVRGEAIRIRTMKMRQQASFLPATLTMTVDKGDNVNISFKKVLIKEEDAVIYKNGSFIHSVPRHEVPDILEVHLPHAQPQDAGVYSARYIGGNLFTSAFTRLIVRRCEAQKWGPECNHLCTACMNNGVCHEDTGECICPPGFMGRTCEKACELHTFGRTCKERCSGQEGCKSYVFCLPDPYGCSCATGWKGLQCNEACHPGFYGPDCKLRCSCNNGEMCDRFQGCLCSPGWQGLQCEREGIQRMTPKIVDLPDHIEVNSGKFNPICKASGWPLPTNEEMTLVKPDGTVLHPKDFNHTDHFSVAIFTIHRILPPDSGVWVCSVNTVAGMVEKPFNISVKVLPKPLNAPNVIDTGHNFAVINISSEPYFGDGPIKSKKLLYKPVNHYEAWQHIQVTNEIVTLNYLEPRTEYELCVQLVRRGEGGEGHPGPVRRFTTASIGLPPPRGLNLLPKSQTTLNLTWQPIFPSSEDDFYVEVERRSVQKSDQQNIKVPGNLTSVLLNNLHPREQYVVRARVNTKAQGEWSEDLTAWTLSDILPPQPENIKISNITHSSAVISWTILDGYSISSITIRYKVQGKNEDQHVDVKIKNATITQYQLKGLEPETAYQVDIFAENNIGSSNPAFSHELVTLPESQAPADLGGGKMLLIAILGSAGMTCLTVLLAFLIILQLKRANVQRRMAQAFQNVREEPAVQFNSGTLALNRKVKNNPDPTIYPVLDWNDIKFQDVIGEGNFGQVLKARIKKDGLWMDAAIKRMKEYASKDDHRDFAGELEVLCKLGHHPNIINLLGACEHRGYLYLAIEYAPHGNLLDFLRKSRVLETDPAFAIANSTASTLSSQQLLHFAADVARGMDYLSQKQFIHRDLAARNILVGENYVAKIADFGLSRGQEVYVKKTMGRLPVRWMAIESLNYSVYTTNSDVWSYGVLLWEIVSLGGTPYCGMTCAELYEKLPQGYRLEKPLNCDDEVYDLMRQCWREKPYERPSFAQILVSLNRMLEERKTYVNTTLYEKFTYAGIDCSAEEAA
The target of test [3] is Mitogen-activated protein kinase kinase kinase kinase 1 (Homo sapiens) (UniProt Q92918). Nature of the test: Selectivity interaction (ActivX KiNativ screen (ex vivo kinase selectivity in human PBMCs)) EUB0001619a MAP4K1. In kind it is cell-based. The note with it: PBMC, at 1 µM.
Chain of Mitogen-activated protein kinase kinase kinase kinase 1 (Homo sapiens) (Q92918 whole entry, looked up): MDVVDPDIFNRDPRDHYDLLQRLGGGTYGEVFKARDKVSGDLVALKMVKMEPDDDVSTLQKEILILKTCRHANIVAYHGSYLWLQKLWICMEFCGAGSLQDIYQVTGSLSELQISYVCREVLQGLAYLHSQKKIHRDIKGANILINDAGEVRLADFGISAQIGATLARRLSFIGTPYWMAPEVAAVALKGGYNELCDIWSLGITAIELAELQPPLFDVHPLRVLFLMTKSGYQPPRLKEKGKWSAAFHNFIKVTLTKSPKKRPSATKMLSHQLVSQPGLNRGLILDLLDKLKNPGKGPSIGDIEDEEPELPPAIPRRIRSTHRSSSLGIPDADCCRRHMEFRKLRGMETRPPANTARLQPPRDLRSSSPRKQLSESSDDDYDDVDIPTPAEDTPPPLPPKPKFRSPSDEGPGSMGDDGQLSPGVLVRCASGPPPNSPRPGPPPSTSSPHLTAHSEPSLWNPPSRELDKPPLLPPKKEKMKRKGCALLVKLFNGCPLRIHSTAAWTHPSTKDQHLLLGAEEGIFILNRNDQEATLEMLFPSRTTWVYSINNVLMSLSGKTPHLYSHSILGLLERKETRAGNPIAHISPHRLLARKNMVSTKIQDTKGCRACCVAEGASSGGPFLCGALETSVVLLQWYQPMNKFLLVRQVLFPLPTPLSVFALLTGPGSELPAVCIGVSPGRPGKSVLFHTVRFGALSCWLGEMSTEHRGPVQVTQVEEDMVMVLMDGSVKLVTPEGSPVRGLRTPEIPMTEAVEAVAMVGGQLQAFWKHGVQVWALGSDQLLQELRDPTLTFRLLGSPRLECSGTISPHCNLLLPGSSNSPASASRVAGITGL
The target in test [4] is T1, Serine/threonine-protein kinase Nek9 (Homo sapiens) (UniProt Q8TD19).
T1 sequence (whole entry): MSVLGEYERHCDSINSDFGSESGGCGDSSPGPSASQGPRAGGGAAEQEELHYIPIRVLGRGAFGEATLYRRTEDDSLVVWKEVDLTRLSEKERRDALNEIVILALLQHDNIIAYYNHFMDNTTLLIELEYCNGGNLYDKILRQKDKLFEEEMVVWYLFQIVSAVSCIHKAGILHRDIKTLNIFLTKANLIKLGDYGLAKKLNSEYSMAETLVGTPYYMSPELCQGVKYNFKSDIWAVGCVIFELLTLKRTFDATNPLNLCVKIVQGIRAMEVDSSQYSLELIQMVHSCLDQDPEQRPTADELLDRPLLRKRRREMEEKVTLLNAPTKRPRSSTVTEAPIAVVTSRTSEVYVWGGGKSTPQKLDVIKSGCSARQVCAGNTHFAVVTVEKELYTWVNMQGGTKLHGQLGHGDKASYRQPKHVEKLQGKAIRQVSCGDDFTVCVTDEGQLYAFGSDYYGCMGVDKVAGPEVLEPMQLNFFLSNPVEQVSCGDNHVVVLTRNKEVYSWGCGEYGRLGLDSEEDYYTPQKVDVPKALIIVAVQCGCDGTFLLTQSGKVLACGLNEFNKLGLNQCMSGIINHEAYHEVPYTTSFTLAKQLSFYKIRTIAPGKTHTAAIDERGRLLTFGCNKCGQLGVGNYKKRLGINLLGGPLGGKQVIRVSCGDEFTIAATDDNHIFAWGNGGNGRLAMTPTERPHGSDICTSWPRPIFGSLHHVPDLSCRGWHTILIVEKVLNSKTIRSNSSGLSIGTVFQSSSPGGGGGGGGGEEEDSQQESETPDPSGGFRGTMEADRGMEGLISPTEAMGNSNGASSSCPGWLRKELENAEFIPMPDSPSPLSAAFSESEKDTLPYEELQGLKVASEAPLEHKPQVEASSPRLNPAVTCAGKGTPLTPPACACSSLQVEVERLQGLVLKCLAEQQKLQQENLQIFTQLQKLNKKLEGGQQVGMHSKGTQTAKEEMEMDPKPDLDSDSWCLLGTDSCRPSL
Nature of the test: Selectivity interaction (ActivX KiNativ screen (kinase selectivity in THP-1 cell lysates)) EUB0000639a NEK9. In kind it is subcellular. To be noted: lysate, at 5 µM.

The target of test [5] is T2, Mitogen-activated protein kinase kinase kinase kinase 2 (Homo sapiens) (UniProt Q12851).
T2 sequence (whole entry): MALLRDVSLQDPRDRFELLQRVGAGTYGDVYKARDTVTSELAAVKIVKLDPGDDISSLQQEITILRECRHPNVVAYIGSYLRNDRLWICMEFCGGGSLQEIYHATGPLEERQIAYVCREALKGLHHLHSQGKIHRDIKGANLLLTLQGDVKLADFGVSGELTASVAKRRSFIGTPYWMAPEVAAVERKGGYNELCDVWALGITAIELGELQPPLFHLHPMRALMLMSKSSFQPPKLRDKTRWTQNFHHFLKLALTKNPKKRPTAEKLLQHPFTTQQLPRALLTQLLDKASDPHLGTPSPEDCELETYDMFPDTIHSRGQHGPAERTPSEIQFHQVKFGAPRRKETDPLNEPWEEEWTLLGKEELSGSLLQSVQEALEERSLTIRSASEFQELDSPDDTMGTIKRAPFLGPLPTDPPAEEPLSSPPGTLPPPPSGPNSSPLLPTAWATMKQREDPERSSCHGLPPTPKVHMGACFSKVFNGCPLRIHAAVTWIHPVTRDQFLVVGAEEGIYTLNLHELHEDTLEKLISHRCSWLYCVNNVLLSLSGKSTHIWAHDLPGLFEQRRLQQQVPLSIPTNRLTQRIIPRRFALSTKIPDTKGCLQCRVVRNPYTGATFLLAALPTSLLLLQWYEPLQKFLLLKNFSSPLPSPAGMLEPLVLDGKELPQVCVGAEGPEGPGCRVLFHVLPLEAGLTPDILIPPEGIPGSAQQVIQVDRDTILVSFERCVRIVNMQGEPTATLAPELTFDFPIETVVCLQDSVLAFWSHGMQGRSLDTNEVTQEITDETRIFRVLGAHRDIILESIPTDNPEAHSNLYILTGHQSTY
Kind of test: Selectivity interaction (ActivX KiNativ screen (kinase selectivity in THP-1 cell lysates)) EUB0000639a MAP4K2. It is filed as subcellular. The note with it: lysate, at 0.01 µM.

Test [6] has as its target Ribosomal protein S6 kinase alpha-2 (Homo sapiens) (UniProt Q15349). Kind of test: Selectivity interaction (KinomeScan (DiscoverX)) EUB0001049a RPS6KA2. The note with it: at 1 µM.
In test [7] the target is T3, Mitogen-activated protein kinase kinase kinase 2 (Homo sapiens) (UniProt Q9Y2U5).
T3 sequence (whole entry): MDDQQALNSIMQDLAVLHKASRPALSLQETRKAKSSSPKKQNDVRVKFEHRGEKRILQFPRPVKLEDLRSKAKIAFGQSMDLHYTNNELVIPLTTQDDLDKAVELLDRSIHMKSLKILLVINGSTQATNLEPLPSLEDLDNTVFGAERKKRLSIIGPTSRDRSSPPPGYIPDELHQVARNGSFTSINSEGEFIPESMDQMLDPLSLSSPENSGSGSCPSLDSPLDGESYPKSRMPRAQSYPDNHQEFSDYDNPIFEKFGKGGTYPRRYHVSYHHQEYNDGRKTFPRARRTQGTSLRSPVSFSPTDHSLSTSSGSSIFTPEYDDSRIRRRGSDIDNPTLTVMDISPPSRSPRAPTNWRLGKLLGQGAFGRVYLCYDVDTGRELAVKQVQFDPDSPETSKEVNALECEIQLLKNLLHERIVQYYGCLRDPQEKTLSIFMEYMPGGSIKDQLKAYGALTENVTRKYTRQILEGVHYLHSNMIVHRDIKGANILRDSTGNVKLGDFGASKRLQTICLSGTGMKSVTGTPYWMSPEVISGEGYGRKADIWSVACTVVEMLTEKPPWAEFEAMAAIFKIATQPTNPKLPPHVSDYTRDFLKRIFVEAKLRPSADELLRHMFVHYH
Nature of the test: Selectivity interaction (KinomeScan (DiscoverX)) EUB0000045b MAP3K2.

Test [8] deals with Calcium/calmodulin-dependent protein kinase type II subunit gamma (Homo sapiens) (UniProt Q13555). Kind of test: Selectivity interaction (KinomeScan (DiscoverX)) EUB0000045b CAMK2G.
Chain of Calcium/calmodulin-dependent protein kinase type II subunit gamma (Homo sapiens) (Q13555 whole entry): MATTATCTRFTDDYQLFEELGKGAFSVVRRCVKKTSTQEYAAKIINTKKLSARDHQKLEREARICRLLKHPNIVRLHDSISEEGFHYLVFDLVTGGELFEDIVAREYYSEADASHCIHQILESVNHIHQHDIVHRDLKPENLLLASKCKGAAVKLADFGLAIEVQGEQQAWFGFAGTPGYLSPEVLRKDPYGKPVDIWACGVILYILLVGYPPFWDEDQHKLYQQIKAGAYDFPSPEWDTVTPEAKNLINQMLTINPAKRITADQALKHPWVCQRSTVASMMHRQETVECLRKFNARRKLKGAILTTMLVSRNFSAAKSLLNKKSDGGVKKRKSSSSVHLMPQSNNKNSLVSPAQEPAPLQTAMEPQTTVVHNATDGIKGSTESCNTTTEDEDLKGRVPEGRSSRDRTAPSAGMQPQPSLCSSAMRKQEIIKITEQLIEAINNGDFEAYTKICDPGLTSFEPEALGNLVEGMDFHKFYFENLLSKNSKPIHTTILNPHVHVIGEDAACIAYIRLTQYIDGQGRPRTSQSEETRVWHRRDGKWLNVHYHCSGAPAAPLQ
For test [9], the target named is Death-associated protein kinase 1 (Homo sapiens, UniProt P53355). Kind of test: Selectivity interaction (KinomeScan (DiscoverX)) EUB0000045b DAPK1.
Chain of Death-associated protein kinase 1 (P53355 whole entry, looked up): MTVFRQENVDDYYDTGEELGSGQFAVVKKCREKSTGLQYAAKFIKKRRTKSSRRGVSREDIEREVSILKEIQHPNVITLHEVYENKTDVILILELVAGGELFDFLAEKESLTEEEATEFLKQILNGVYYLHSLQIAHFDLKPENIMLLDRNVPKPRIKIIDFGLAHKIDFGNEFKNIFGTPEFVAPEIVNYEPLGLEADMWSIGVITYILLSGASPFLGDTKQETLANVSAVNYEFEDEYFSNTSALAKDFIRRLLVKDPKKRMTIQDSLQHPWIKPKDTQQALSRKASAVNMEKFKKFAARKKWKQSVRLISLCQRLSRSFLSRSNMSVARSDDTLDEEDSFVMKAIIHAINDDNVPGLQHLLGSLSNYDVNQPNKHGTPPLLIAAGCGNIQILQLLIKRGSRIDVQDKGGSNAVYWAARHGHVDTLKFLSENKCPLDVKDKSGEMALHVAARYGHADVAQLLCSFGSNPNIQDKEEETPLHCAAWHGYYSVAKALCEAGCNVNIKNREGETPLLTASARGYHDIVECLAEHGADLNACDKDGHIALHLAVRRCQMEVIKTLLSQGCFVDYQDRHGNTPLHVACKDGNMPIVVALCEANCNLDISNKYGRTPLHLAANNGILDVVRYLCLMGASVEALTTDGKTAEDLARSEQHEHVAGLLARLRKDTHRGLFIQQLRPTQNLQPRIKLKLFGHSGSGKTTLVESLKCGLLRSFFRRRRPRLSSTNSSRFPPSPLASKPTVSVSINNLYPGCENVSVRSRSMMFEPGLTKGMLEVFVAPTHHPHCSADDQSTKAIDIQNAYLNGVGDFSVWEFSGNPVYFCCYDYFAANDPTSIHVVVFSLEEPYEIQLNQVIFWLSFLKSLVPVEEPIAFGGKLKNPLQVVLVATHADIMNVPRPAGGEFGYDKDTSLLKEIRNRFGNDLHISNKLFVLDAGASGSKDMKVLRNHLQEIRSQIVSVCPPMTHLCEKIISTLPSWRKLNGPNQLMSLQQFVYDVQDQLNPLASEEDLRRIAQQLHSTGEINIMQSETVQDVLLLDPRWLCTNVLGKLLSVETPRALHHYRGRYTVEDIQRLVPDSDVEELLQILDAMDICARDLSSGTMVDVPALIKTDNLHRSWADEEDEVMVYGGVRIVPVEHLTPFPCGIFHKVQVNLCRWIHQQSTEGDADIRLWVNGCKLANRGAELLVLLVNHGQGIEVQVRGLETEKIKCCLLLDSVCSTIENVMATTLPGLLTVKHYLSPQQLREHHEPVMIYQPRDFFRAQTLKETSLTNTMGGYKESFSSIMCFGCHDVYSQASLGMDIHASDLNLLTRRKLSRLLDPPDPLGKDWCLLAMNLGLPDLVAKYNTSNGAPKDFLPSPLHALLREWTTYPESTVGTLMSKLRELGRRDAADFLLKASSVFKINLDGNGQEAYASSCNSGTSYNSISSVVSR

Chain of Ribosomal protein S6 kinase alpha-2 (Homo sapiens) (Q15349 whole entry): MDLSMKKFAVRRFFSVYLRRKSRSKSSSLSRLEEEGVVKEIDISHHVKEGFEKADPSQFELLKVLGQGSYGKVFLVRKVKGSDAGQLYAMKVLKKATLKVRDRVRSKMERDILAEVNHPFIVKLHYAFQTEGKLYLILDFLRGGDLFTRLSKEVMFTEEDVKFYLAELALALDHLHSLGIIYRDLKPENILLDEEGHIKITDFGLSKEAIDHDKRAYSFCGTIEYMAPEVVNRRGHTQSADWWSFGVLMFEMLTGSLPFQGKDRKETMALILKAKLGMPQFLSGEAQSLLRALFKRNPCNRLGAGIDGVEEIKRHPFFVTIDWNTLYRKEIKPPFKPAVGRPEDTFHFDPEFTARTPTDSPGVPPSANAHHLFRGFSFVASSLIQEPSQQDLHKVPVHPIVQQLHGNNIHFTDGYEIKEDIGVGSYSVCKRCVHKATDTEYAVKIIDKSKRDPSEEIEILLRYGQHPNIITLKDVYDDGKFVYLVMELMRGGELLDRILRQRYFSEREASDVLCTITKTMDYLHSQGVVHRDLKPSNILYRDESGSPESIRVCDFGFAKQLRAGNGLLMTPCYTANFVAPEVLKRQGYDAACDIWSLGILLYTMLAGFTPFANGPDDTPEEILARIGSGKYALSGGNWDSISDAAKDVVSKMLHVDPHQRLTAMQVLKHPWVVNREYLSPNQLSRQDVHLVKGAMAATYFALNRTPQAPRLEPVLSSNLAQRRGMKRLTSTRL
Chain of Angiopoietin-1 receptor (Homo sapiens), Q02763 [Y1108F] (Q02763 whole entry Y1108F): as the sequence (Q02763 whole entry R849W) above, with W849R, Y1108F counted along it

In the case of `Cn1cc(-n2cnc3c(NCc4nc5cc(Cl)c(Cl)cc5[nH]4)nc(N4CCOCC4)nc32)cn1`, the % of inhibition is -24.4% in [1] and -63.9% in test [2].

For the compound `N#Cc1cccc(-c2c[nH]c3ncnc(N4CCOCC4)c23)c1`, the % of inhibition in [3] stood at 26%.

Turning to `CC[C@@H]1[C@H](F)C(=O)N[C@@H]1COc1nccc2cc(C(N)=O)c(OC)cc12` [ZIMLOVISERTIB], the % of inhibition was 8.8% in [4] and 13.3% in test [5].

Compound `COc1cc(Nc2nc(C)cc(-c3cnn4nc(OC)ccc34)n2)cc(C(F)(F)F)c1` yielded a % of control in [6] of 93%.

Regarding `C=CC(=O)Nc1cc(-n2c(=O)ccc3cnc4ccc(-c5ccc(NS(C)(=O)=O)cc5)cc4c32)ccc1C`, the % of control amounted to 100% in test [7] (at 1 µM); 100% in test [7] (at 10 µM); 100% in test [8] (at 1 µM); 96% in test [8] (at 10 µM); 96% in test [9] (at 1 µM); 61% in [9] (at 10 µM).
